Assay results as given in patent publication US9029389B2 (Institut Pasteur Korea, priority 2011, dated 2015).

Key:
Human 5-lipoxygenase = molecular target: T1, Human 5-lipoxygenase (Homo sapiens, UniProt P09917); assay: Activity of compounds against 5-LO enzyme (LTB4 measurement and/or fluorescence method); type: biochemical; settings: for inhibition at 10 µM: 5-LO, single concentration of 10 uM in duplicate; for IC50: 6 or 11 point dose response in duplicate
T1 construct: purchased Cayman 60402; host or cells: insect cells
T1 sequence (P09917 1-674): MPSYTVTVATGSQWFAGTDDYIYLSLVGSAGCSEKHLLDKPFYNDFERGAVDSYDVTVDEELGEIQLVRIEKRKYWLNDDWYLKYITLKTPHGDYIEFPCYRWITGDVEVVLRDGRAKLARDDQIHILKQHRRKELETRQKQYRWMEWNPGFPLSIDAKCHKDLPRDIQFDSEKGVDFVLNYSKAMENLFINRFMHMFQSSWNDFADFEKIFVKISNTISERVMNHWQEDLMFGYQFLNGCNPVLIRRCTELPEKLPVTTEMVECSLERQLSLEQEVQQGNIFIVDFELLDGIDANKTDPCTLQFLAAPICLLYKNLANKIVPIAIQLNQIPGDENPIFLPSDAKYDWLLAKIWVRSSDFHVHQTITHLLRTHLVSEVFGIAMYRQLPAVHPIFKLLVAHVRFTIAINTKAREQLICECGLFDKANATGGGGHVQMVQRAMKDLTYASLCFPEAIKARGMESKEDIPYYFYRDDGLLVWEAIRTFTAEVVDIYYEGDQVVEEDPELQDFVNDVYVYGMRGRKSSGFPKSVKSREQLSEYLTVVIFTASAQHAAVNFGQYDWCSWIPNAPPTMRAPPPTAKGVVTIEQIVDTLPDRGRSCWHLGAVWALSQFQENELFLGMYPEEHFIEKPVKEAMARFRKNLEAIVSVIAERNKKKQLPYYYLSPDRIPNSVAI
Summary of the method: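 Two read-outs: LTB4 measured by EIA and/or LC/MS/MS with LTB4-d4 standard after 15 min RT compound preincubation with insect-cell 5-LO and a 5 min 37 °C reaction on 3 uM arachidonic acid (0.1 mM ATP, pH 7.4). The room-temperature fluorescence format used 20 uM H2DCFDA, 100 uM ATP, 3 uM arachidonic acid, 5 min; IC50 from 6/11-point curves.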

Structure (SMILES) | melting point | inhibition at 10 µM (Human 5-lipoxygenase) [%] | IC50 (Human 5-lipoxygenase) [nM]
CCc1nc2cc(Cl)ccn2c1C(=O)NCc1ccc(N2CCC(c3ccc(F)cc3)CC2)cc1 [compound 250, 7-Chloro-2-ethyl-N-(4-(4-(4-fluorophenyl)piperidin-1-yl)benzyl)imidazo[1,2-a]pyridine-3-carboxamide] | 182.7 °C | 40 to 69 | –
CCc1nc2cc(Cl)ccn2c1C(=O)NCc1ccc(N2CCCCC2C)cc1 (stereo not drawn) [compound 252, 7-chloro-2-ethyl-N-(4-(2-methylpiperidin-1-yl)benzyl)imidazo[1,2-a]pyridine-3-carboxamide] | 117.9 °C | < 40 | –
CCc1nc2cc(Br)ccn2c1C(=O)NCc1ccc(N2CCOCC2)cc1 [compound 253, 7-Bromo-2-ethyl-N-(4-morpholinobenzyl)imidazo[1,2-a]pyridine-3-carboxamide] | 202.6 °C | < 40 | –
CCc1nc2cc(N3CCN(C)CC3)ccn2c1C(=O)NCc1ccc(N2CCOCC2)cc1 [compound 254, 2-Ethyl-7-(4-methylpiperazin-1-yl)-N-(4-morpholinobenzyl)imidazo[1,2-a]pyridine-3-carboxamide] | 204.8 °C | < 40 | –
CCc1nc2cc(-c3ccncc3)ccn2c1C(=O)NCc1ccc(N2CCOCC2)cc1 [compound 255, 2-Ethyl-N-(4-morpholinobenzyl)-7-(pyridin-4-yl)imidazo[1,2-a]pyridine-3-carboxamide] | 210.1 °C | < 40 | –
CCc1nc2cc(N3CCN(Cc4ccc(F)cc4)CC3)ccn2c1C(=O)NCc1ccc(N2CCOCC2)cc1 [compound 257, 2-Ethyl-7-(4-(4-fluorobenzyl)piperazin-1-yl)-N-(4-morpholinobenzyl)imidazo[1,2-a]pyridine-3-carboxamide] | 212.5 °C | 40 to 69 | –
CCc1nc2ccccn2c1C(=O)NCc1ccc(N2CCC(c3ccc(OC(F)(F)F)cc3)CC2)cc1 [compound 266, 2-Ethyl-N-(4-(4-(4-(trifluoromethoxy)phenyl)piperidin-1-yl)benzyl)imidazo[1,2-a]pyridine-3-carboxamide] | 146 °C | > 69 | < 1000
CCc1nc2ccc(OC)cn2c1C(=O)NCc1ccc(N2CCN(c3ccc(F)cc3)CC2)cc1 [compound 271, 2-Ethyl-N-(4-(4-(4-fluorophenyl)piperazin-1-yl)benzyl)-6-methoxyimidazo[1,2-a]pyridine-3-carboxamide] | 173.8 °C | 40 to 69 | –
CCc1nc2ccc(C(F)(F)F)cn2c1C(=O)NCc1ccc(N2CCOCC2)cc1 [compound 273, 2-Ethyl-N-(4-morpholinobenzyl)-6-(trifluoromethyl)imidazo[1,2-a]pyridine-3-carboxamide] | 207.6 °C | < 40 | –
CCc1nc2c(C(F)(F)F)cccn2c1C(=O)NCc1ccc(N2CCOCC2)cc1 [compound 274, 2-Ethyl-N-(4-morpholinobenzyl)-8-(trifluoromethyl)imidazo[1,2-a]pyridine-3-carboxamide] | 200.6 °C | < 40 | –
CCc1nc2c(OC(F)F)cccn2c1C(=O)NCc1ccc(N2CCN(c3ccc(F)cc3)CC2)cc1 [compound 278, 8-(Difluoromethoxy)-2-ethyl-N-(4-(4-(4-fluorophenyl)piperazin-1-yl)benzyl)imidazo[1,2-a]pyridine-3-carboxamide] | 186.3 °C | 40 to 69 | –
CCc1nc2c(OC(F)F)cccn2c1C(=O)NCc1ccc(N2CCOCC2)cc1 [compound 279, 8-(Difluoromethoxy)-2-ethyl-N-(4-morpholinobenzyl)imidazo[1,2-a]pyridine-3-carboxamide] | 163 °C | < 40 | –
CCc1nc2ccc(Cl)cn2c1-c1nc(Cc2ccc(Oc3ccc(F)cc3)cc2)no1 [compound 289, 5-(6-Chloro-2-ethylimidazo[1,2-a]pyridin-3-yl)-3-(4-(4-fluorophenoxy)benzyl)-1,2,4-oxadiazole] | 129.9 °C | < 40 | –
CCc1nc2cc(C(F)(F)F)ccn2c1C(=O)NCc1ccc(N2CCOCC2)cc1 [compound 290, 2-Ethyl-N-(4-morpholinobenzyl)-7-(trifluoromethyl)imidazo[1,2-a]pyridine-3-carboxamide] | 174.1 °C | < 40 | –
CCc1nc2ccc(Cl)cn2c1C(=O)NCc1ccc(N2CCC(C(N)=O)CC2)cc1 [compound 291, N-(4-(4-Carbamoylpiperidin-1-yl)benzyl)-6-chloro-2-ethylimidazo[1,2-a]pyridine-3-carboxamide] | 257.5 °C | < 40 | –
CCc1nc2cc(Cl)ccn2c1C(=O)NCc1ccc(N2CCC(C(N)=O)CC2)cc1 [compound 292, N-(4-(4-Carbamoylpiperidin-1-yl)benzyl)-7-chloro-2-ethylimidazo[1,2-a]pyridine-3-carboxamide] | 244 °C | < 40 | –
CCc1nc2cc(Cl)ccn2c1C(=O)NCc1ccc(N2CCC(c3ccc(Cl)cc3)CC2)cc1 [compound 297, 7-Chloro-N-(4-(4-(4-chlorophenyl)piperidin-1-yl)benzyl)-2-ethylimidazo[1,2-a]pyridine-3-carboxamide] | 177 °C | 40 to 69 | –
CCc1nc2ccc(Cl)cn2c1C(=O)NCc1ccc2oc(C3CCCCC3)nc2c1 [compound 298, 6-Chloro-N-((2-cyclohexylbenzo[d]oxazol-5-yl)methyl)-2-ethylimidazo[1,2-a]pyridine-3-carboxamide] | 169.7 °C | > 69 | 1000 to 20000
CCc1nc2cc(Cl)ccn2c1C(=O)NCc1ccc2oc(C3CCCCC3)nc2c1 [compound 299, 7-Chloro-N-((2-cyclohexylbenzo[d]oxazol-5-yl)methyl)-2-ethylimidazo[1,2-a]pyridine-3-carboxamide] | 163 °C | > 69 | < 1000
CCc1nc2ccc(Cl)cn2c1C(=O)NCc1ccc(N2CCOCC2)c(Cl)c1 [compound 302, 6-Chloro-N-(3-chloro-4-morpholinobenzyl)-2-ethylimidazo[1,2-a]pyridine-3-carboxamide] | 175.5 °C | < 40 | –
CCc1nc2cc(Br)ccn2c1C(=O)NCc1ccc(N2CCN(c3ccc(F)cc3)CC2)cc1 [compound 304, 7-Bromo-2-ethyl-N-(4-(4-(4-fluorophenyl)piperazin-1-yl)benzyl)imidazo[1,2-a]pyridine-3-carboxamide] | 214.6 °C | > 69 | 1000 to 20000
CCc1nc2cc(-c3cccnc3)ccn2c1C(=O)NCc1ccc(N2CCOCC2)cc1 [compound 305, 2-Ethyl-N-(4-morpholinobenzyl)-7-(pyridin-3-yl)imidazo[1,2-a]pyridine-3-carboxamide] | 208.5 °C | < 40 | –
CCc1nc2ccc(Cl)cn2c1C(=O)NCc1ccc(N2CCC(O)(c3ccc(F)cc3)CC2)cc1 [compound 306, 6-Chloro-2-ethyl-N-(4-(4-(4-fluorophenyl)-4-hydroxypiperidin-1-yl)benzyl)imidazo[1,2-a]pyridine-3-carboxamide] | 173.5 °C | 40 to 69 | –
CCc1nc2ccc(Cl)cn2c1C(=O)NC1CCN(Cc2ccc(OC(F)(F)F)cc2)CC1 [compound 309, 6-Chloro-2-ethyl-N-(1-(4-(trifluoromethoxy)benzyl)piperidin-4-yl)imidazo[1,2-a]pyridine-3-carboxamide] | 157 to 158 °C | 40 to 69 | 1000 to 20000
CCc1nc2c[n+]([O-])ccn2c1C(=O)NCc1ccc(-c2ccc(Cl)cc2)cc1 [compound 310, 3-(((4′-Chloro-[1,1′-biphenyl]-4-yl)methyl)carbamoyl)-2-ethylimidazo[1,2-a]pyrazine 7-oxide] | 238 °C | 40 to 69 | 1000 to 20000
CCc1nc2ccc(Cl)cn2c1C(=O)NCc1ccc(C2CCN(C(=O)Cc3ccc(F)cc3)CC2)cc1 [compound 327, 6-chloro-2-ethyl-N-(4-(1-(2-(4-fluorophenyl)acetyl)piperidin-4-yl)benzyl)imidazo[1,2-a]pyridine-3-carboxamide] | 216.2 to 220.7 °C | 40 to 69 | –
CCc1nc2ccc(Cl)cn2c1C(=O)NCc1cccc(N(C)Cc2ccc(OC(F)(F)F)cc2)c1 [compound 352, 6-chloro-2-ethyl-N-(3-(methyl(4-(trifluoromethoxy)benz)amino)benzyl)imidazo[1,2-a]pyridine-3-carboxamide] | > 142.3 °C (dec.) | < 40 | –
